Article PMC9737391, “Trifluoromethylcinnamanilide Michael Acceptors for Treatment of Resistant Bacterial Infections” (International Journal of Molecular Sciences, 2022)
≈ marks a conversion by molar mass, not a printed value.

Experiments:
[1] = Lipophilicity determination by RP-HPLC; assay type: physicochemical; details: for log k: RP-HPLC, logarithm of capacity factor k
Method: It is evident from the graphs in Figure 1 that the correlation coefficients of the dependences of log k/log D6.5/log D7.4 have a value of r = 0.999 (n = 32), which means that the investigated compounds behave insignificantly differently in aqueous media with different pH. Moreover, lipophilicity was calculated as log P and Clog P using two prediction programs. […] Therefore, only log P values predicted by ACD/Percepta can be used for correlations with experimental values. These matches are shown in the graphs in Figure 2, and according to the correlation coefficient r~0.940 (n = 32), it can be argued that even the predicted lipophilicity values correlate with the experimentally measured ones. However, the largest variations were observed (no difference for series 1, 2) for compounds substituted with 2-Cl, 2-CF3, 2,5-Cl, 4-F, 4-CF3, and 3,5-F, 3,5-Cl. These are mainly substituents capable of forming hydrogen and other types of non-bonding interactions both with the surrounding environment and within the molecule. Overall, series 1 (3-CF3) is less lipophilic than series 2 (4-CF3), but the differences in the experimental data are insignificant. Unsubstituted derivatives 1a/2a are the least lipophilic compounds, while derivatives 1o/2o (3,5-Cl) and 1p/2p (3,5-CF3) are the most lipophilic compounds.
Experimental determination of lipophilicity values (log k, log D6.5, and log D7.4) was performed under the same conditions and on the same device as described by Strharsky et al..

[2] = tested on: methicillin-resistant S. aureus 63718 (MRSA3); assay: MIC, microtitration broth method; assay type: cell-based; details: Staphylococcus aureus; MRSA 63718
[3] = tested on: methicillin-resistant S. aureus SA 630 (MRSA2); assay: MIC, microtitration broth method; assay type: cell-based; details: Staphylococcus aureus; MRSA SA 630
[4] = tested on: methicillin-resistant S. aureus SA 3202 (MRSA1); assay: MBC, agar aliquot subculture method; assay type: cell-based; details: Staphylococcus aureus; MRSA SA 3202
[5] = tested on: Staphylococcus aureus ATCC 29213; assay: MIC, microtitration broth method; assay type: cell-based; details: ATCC29213, S. aureus ATCC 29213
M. smegmatis ATCC 700084 = assay: In vitro antimycobacterial evaluation (MIC); assay type: cell-based, Mycobacterium smegmatis; details: Mycolicibacterium smegmatis, ATCC700084
[6] = tested on: methicillin-resistant S. aureus 63718 (MRSA3); assay: MBC, agar aliquot subculture method; assay type: cell-based; details: Staphylococcus aureus; MRSA 63718
[7] = tested on: Staphylococcus aureus ATCC 29213; assay: MBC, agar aliquot subculture method; assay type: cell-based; details: ATCC29213, S. aureus ATCC 29213
[8] = tested on: methicillin-resistant S. aureus SA 3202 (MRSA1); assay: MIC, microtitration broth method; assay type: cell-based; details: Staphylococcus aureus; MRSA SA 3202
S. aureus ATCC 29213 = assay: MTT assay, inhibition of bacterial respiration; assay type: cell-based, Staphylococcus aureus
Text: The MTT assay can be used to assess cell growth by measuring respiration. Respiratory activity of bacterial cells (which is finally reflected in their viability) less than 70% after exposure to the MIC values for each tested compound is considered as a positive result of this assay. This low level of cell oxidative metabolism indicates inhibition of cell growth by inhibition of respiration. The lowest multiples of MIC values that achieved more than 70% inhibition of S. aureus ATCC 29213 viability (%) are shown in Table 3.
The percent inhibition of respiration of S. aureus ATCC 29213 was determined through the MTT assay. The assay was performed as described recently. The percent viability is calculated through the comparison of a measured value and that of the uninhibited control: % viability = OD570E/OD570P × 100, where OD570E is the reading from the compound-exposed cells, while OD570P is the reading from the uninhibited cells (positive control). Cytotoxic potential is determined by a percent viability of <70% [46, 47].

[9] = tested on: human monocytic leukemia cell line THP-1; assay: In vitro cell viability (cytotoxicity screening); assay type: cell-based; details: 24 h, medium with 10% FBS, ± SD, n = 6
Method: The investigated anilides can be divided into three groups. […] Higher concentrations (than 10 or 30 µM) were not possible to evaluate due to precipitation of the tested compounds in water medium. Based on all these observations, it can be concluded that the high antimicrobial activity of 3,5-CF3-substituted compounds is associated with significant cytotoxic effect against eukaryotic cells. On the other hand, the other still effective compounds, especially agents 1j and 1o, have an insignificant toxic effect, which makes them interesting for further study.
Human monocytic leukemia THP-1 cells obtained from the European Collection of Cell Cultures (ECACC, Salisbury, UK) were used for in vitro antiproliferative assays. A recently described procedure was used.

[10] = tested on: methicillin-resistant S. aureus SA 630 (MRSA2); assay: MBC, agar aliquot subculture method; assay type: cell-based; details: Staphylococcus aureus; MRSA SA 630

| Compound | melting point [°C] | log k [1] | also measured |
| --- | --- | --- | --- |
| O=C(/C=C/c1ccc(C(F)(F)F)cc1)Nc1ccc(F)cc1F [2k, (2E)-N-(2,4-Difluorophenyl)-3-[4-(trifluoromethyl)phenyl]prop-2-enamide] | 141 to 143 | 0.6011 |  |
| O=C(/C=C/c1cccc(C(F)(F)F)c1)Nc1ccc(F)cc1 [1d, (2E)-N-(4-Fluorophenyl)-3-[3-(trifluoromethyl)phenyl]prop-2-enamide] |  | 0.5760 |  |
| O=C(/C=C/c1cccc(C(F)(F)F)c1)Nc1ccc(F)cc1F [1k, (2E)-N-(2,4-Difluorophenyl)-3-[3-(trifluoromethyl)phenyl]prop-2-enamide] | 143 to 145 | 0.5906 |  |
| O=C(/C=C/c1ccc(C(F)(F)F)cc1)Nc1ccc(Cl)cc1Cl [2m, (2E)-N-(2,4-Dichlorophenyl)-3-[4-(trifluoromethyl)phenyl]prop-2-enamide] | 188 to 190 | 0.9735 |  |
| O=C(/C=C/c1cccc(C(F)(F)F)c1)Nc1ccccc1C(F)(F)F [1h, (2E)-N-[2-(Trifluoromethyl)phenyl]-3-[3-(trifluoromethyl)phenyl]prop-2-enamide] | 111 to 113 | 0.5710 |  |
| O=C(/C=C/c1cccc(C(F)(F)F)c1)Nc1cc(F)cc(F)c1 [1l, (2E)-N-(3,5-Difluorophenyl)-3-[3-(trifluoromethyl)phenyl]prop-2-enamide] | 131 to 133 | 0.8186 |  |
| O=C(/C=C/c1cccc(C(F)(F)F)c1)Nc1cccc(Cl)c1 [1f, (2E)-N-(3-Chlorophenyl)-3-[3-(trifluoromethyl)phenyl]prop-2-enamide] | 126 to 128 | 0.8016 | MIC [2]: 6.14 µM (≈ 2 µg/mL); MIC [3]: 6.14 µM (≈ 2 µg/mL); MBC [4]: 6.14 µM (≈ 2 µg/mL); MIC [5]: 12.3 µM (≈ 4.01 µg/mL); MIC (M. smegmatis ATCC 700084): 24.6 µM (≈ 8.01 µg/mL); MBC [6]: 12.3 µM (≈ 4.01 µg/mL); MBC [7]: 12.3 µM (≈ 4.01 µg/mL); MIC [8]: 6.14 µM (≈ 2 µg/mL); Conc.: lowest multiple of MIC with at least 70% inhibition of respiratory activity (S. aureus ATCC 29213): 1× MIC (1× MBC); Conc.: the same concentration as multiple of MBC (S. aureus ATCC 29213): 1× MIC (1× MBC); IC50 [9]: > 10 µM; MBC [10]: 6.14 µM (≈ 2 µg/mL) |
| (2E)-N-Phenyl-3-[3-(trifluoromethyl)phenyl]prop-2-enamide [2a] |  | 0.5351 | log D6.5 ([1]; pH 6.5): 0.4751; log D7.4 ([1]; pH 7.4): 0.4684 |
| O=C(/C=C/c1ccc(C(F)(F)F)cc1)Nc1cc(Cl)cc(Cl)c1 [2o, (2E)-N-(3,5-Dichlorophenyl)-3-[4-(trifluoromethyl)phenyl]prop-2-enamide] | 177 to 179 | 1.2024 |  |
| O=C(/C=C/c1ccc(C(F)(F)F)cc1)Nc1cc(F)cc(F)c1 [2l, (2E)-N-(3,5-Difluorophenyl)-3-[4-(trifluoromethyl)phenyl]prop-2-enamide] | 188 to 190 | 0.8253 |  |
| O=C(/C=C/c1ccc(C(F)(F)F)cc1)Nc1cc(Cl)ccc1Cl [2n, (2E)-N-(2,5-Dichlorophenyl)-3-[4-(trifluoromethyl)phenyl]prop-2-enamide] | 180 to 182 | 0.9583 |  |
| O=C(/C=C/c1ccc(C(F)(F)F)cc1)Nc1ccc(C(F)(F)F)cc1 [2j, (2E)-N,3-bis[4-(Trifluoromethyl)phenyl]prop-2-enamide] | 192 to 194 | 0.9319 |  |
| O=C(/C=C/c1cccc(C(F)(F)F)c1)Nc1cccc(C(F)(F)F)c1 [1i, (2E)-N,3-bis[3-(Trifluoromethyl)phenyl]prop-2-enamide] |  | 0.8807 | MIC [2]: 2.78 µM (≈ 0.999 µg/mL); MIC [3]: 2.78 µM (≈ 0.999 µg/mL); MBC [4]: 11.1 µM (≈ 3.99 µg/mL); MIC [5]: 11.1 µM (≈ 3.99 µg/mL); MIC (M. smegmatis ATCC 700084): 11.1 µM (≈ 3.99 µg/mL); MBC [6]: 22.3 µM (≈ 8.01 µg/mL); MBC [7]: 22.3 µM (≈ 8.01 µg/mL); MIC [8]: 11.1 µM (≈ 3.99 µg/mL); Conc.: lowest multiple of MIC with at least 70% inhibition of respiratory activity (S. aureus ATCC 29213): 1 × MIC; Conc.: the same concentration as multiple of MBC (S. aureus ATCC 29213): 0.5 × MBC; IC50 [9]: > 10 µM; MBC [10]: 2.78 µM (≈ 0.999 µg/mL) |
| O=C(/C=C/c1ccc(C(F)(F)F)cc1)Nc1ccccc1F [2b, (2E)-N-(2-Fluorophenyl)-3-[4-(trifluoromethyl)phenyl]prop-2-enamide] | 164 to 166 | 0.5515 |  |
| O=C(/C=C/c1ccc(C(F)(F)F)cc1)Nc1ccc(Cl)cc1 [2g, (2E)-N-(4-Chlorophenyl)-3-[4-(trifluoromethyl)phenyl]prop-2-enamide] | 185 to 187 | 0.8054 |  |
| O=C(/C=C/c1ccc(C(F)(F)F)cc1)Nc1cccc(Cl)c1 [2f, (2E)-N-(3-Chlorophenyl)-3-[4-(trifluoromethyl)phenyl]prop-2-enamide] | 150 to 152 | 0.8095 |  |
| O=C(/C=C/c1cccc(C(F)(F)F)c1)Nc1ccc(Cl)cc1Cl [1m, (2E)-N-(2,4-Dichlorophenyl)-3-[3-(trifluoromethyl)phenyl]prop-2-enamide] | 134 to 136 | 0.9782 |  |
| O=C(/C=C/c1ccc(C(F)(F)F)cc1)Nc1cccc(F)c1 [2c, (2E)-N-(3-Fluorophenyl)-3-[4-(trifluoromethyl)phenyl]prop-2-enamide] | 146 to 148 | 0.6462 |  |
| O=C(/C=C/c1cccc(C(F)(F)F)c1)Nc1ccccc1F [1b, (2E)-N-(2-Fluorophenyl)-3-[3-(trifluoromethyl)phenyl]prop-2-enamide] | 115 to 117 | 0.5375 |  |
| O=C(/C=C/c1ccc(C(F)(F)F)cc1)Nc1ccccc1C(F)(F)F [2h, (2E)-N-[2-(Trifluoromethyl)phenyl]-3-[4-(trifluoromethyl)phenyl]prop-2-enamide] | 189 to 191 | 0.5798 |  |
| O=C(/C=C/c1cccc(C(F)(F)F)c1)Nc1ccccc1 [1a, (2E)-N-Phenyl-3-[3-(trifluoromethyl)phenyl]prop-2-enamide] |  | 0.5234 |  |
| O=C(/C=C/c1cccc(C(F)(F)F)c1)Nc1cc(Cl)ccc1Cl [1n, (2E)-N-(2,5-Dichlorophenyl)-3-[3-(trifluoromethyl)phenyl]prop-2-enamide] | 145 to 147 | 0.9612 |  |
| O=C(/C=C/c1ccc(C(F)(F)F)cc1)Nc1ccccc1Cl [2e, (2E)-N-(2-Chlorophenyl)-3-[4-(trifluoromethyl)phenyl]prop-2-enamide] | 171 to 173 | 0.6614 |  |
| O=C(/C=C/c1ccc(C(F)(F)F)cc1)Nc1ccc(F)cc1 [2d, (2E)-N-(4-Fluorophenyl)-3-[4-(trifluoromethyl)phenyl]prop-2-enamide] | 149 to 151 | 0.5887 |  |
| O=C(/C=C/c1cccc(C(F)(F)F)c1)Nc1ccccc1Cl [1e, (2E)-N-(2-Chlorophenyl)-3-[3-(trifluoromethyl)phenyl]prop-2-enamide] | 118 to 120 | 0.6568 |  |
